Molecules are shown by their SMILES. pEC50: −log10 of the molar value. Structures can show the parent of a compound that is named as a salt. Where only a bound is given, the exact number is not on record here.

Drawing on patent US10968225B2, “Compounds and compositions for the treatment of cystic fibrosis” (Fondazione Istituto Italiano Di Tecnologia, priority 2017, dated 2021), this text covers EC50 for 18 compounds.

The assay deals with T1, mutant CFTR (Homo sapiens, UniProt P13569, DEL508-508).
T1 construct: expressed in transfected cells
T1 sequence (P13569 with tags, fused parts or gaps DEL508-508): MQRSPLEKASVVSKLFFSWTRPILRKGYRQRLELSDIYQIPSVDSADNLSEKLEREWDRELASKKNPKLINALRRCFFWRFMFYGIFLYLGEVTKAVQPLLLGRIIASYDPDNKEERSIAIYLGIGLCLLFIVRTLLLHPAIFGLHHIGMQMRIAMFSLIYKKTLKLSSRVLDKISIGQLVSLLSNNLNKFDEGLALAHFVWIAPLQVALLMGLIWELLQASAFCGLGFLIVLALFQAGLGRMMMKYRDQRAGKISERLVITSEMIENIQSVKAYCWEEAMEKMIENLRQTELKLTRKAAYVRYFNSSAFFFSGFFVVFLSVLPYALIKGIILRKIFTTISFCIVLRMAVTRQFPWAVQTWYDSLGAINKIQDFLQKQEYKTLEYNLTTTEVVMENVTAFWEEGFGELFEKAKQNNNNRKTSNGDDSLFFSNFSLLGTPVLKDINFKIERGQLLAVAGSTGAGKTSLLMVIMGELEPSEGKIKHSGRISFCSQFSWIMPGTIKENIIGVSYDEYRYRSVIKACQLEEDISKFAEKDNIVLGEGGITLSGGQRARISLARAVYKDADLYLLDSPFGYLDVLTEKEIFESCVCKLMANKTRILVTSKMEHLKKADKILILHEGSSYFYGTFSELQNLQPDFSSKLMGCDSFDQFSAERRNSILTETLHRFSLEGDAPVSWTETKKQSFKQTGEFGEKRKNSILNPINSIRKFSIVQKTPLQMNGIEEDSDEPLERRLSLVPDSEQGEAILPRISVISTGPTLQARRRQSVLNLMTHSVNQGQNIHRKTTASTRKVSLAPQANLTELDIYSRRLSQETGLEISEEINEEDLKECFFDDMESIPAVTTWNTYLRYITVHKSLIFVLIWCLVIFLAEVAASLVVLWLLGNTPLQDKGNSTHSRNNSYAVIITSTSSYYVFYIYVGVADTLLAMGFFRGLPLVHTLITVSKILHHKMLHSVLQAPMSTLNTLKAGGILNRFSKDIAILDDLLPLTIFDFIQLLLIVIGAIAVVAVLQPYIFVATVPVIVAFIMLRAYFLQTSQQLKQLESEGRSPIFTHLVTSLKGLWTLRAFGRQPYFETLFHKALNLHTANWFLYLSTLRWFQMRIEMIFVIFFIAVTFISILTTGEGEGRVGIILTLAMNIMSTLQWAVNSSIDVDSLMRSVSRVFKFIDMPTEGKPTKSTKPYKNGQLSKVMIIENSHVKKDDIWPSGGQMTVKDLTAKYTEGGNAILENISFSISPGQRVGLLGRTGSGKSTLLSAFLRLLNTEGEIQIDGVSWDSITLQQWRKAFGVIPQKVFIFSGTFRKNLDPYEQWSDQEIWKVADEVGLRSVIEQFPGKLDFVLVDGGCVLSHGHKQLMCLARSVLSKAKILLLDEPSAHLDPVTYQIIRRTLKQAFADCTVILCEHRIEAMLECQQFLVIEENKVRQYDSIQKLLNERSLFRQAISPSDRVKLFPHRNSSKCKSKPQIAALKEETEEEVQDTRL
Kind of assay: Fluorescence (HS-YFP) assay for CFTR activity, corrector assay. In kind it is cell-based. As to conditions: CFBE41o- and FRT cells with stable expression of mutant CFTR, read-out: activity (EC50).
What is called pEC50 is the negative decadic logarithm of the EC50, by convention in mol/L. Consider `CN(C(=O)c1cccc(-n2nc(C(F)(F)F)c3c2CC2CCC3N2)c1)c1ccc2c(c1)OCO2` (racemic) [Compound 022, N-(Benzo[d][1,3]dioxol-5-yl)-N-methyl-3-(3-(trifluoromethyl)-5,6,7,8-tetrahydro-4,7-epiminocyclohepta[c]pyrazol-1(4H)-yl)benzamide hydrochloride], for which the negative logarithm of the EC50 (pEC50) was > 6.00.

For the compound `CN(C(=O)c1cccc(-n2nc(C(F)(F)F)c3c2CC2CCC3N2C)c1)c1ccc2c(c1)OCO2` (racemic) [Compound 023, N-(Benzo[d][1,3]dioxol-5-yl)-N-methyl-3-(9-methyl-3-(trifluoromethyl)-5,6,7,8-tetrahydro-4,7-epiminocyclohepta [c]pyrazol-1(4H)-yl)benzamide], the pEC50 was > 6.00.

Consider `CCC(C)N1CCc2c(c(C(F)(F)F)nn2-c2cccc(C(=O)N(C)c3ccc4c(c3)OCO4)c2)C1` (racemic) [Compound 024, N-(1,3-Benzodioxol-5-yl)-N-methyl-3-[5-sec-butyl-3-(trifluoromethyl)-6,7-dihydro-4H-pyrazolo[4,3-c]pyridin-1-yl]benzamide], for which the pEC50 is > 6.00.

For the compound `CN(C(=O)c1cccc(-n2nc(C(F)(F)F)c3c2C(Oc2cncc(C(=O)O)c2)COC3)c1)c1ccc2c(c1)OC(F)(F)O2` (racemic) [Compound 210, 5-[[1-[3-[(2,2-Difluoro-1,3-benzodioxol-5-yl)-methyl-carbamoyl]phenyl]-3-(trifluoromethyl)-6,7-dihydro-4H-pyrano[4,3-c]pyrazol-7-yl]oxy]pyridine-3-carboxylic acid], the pEC50 was 5.70 to 6.00.

Consider `CN(C(=O)c1cccc(-n2nc(C(F)(F)F)c3c2C(Oc2ccc(C(=O)O)cn2)COC3)c1)c1ccc2c(c1)OC(F)(F)O2` (racemic) [Compound 213, 6-[[1-[3-[(2,2-Difluoro-1,3-benzodioxol-5-yl)-methyl-carbamoyl]phenyl]-3-(trifluoromethyl)-6,7-dihydro-4H-pyrano[4,3-c]pyrazol-7-yl]oxy]pyridine-3-carboxylic acid], for which the pEC50 is > 6.00.

As for `CN(C(=O)c1cccc(-n2nc(C(F)(F)F)c3c2C(Oc2ccc(C(=O)O)cc2)CCC3)c1)c1cnc(OC(F)F)nc1` (racemic) [Compound 219, 4-[[1-[3-[[2-(Difluoromethoxy)pyrimidin-5-yl]-methyl-carbamoyl]phenyl]-3-(trifluoromethyl)-4,5,6,7-tetrahydroindazol-7-yl]oxy]benzoic acid], the pEC50 was 5.70 to 6.00.

For the compound `CN(C(=O)c1cccc(-n2nc(C(F)(F)F)c3c2C(Oc2cc(C(=O)O)ccn2)COC3)c1)c1ccc2c(c1)OC(F)(F)O2` (racemic) [Compound 231, 2-[[1-[3-[(2,2-Difluoro-1,3-benzodioxol-5-yl)-methyl-carbamoyl]phenyl]-3-(trifluoromethyl)-6,7-dihydro-4H-pyrano[4,3-c]pyrazol-7-yl]oxy]pyridine-4-carboxylic acid], the pEC50 is > 6.00.

Take `CN(C(=O)c1cccc(-n2nc(C(F)F)c3c2C(Oc2ccc(C(=O)O)cc2)CCC3)c1)c1ccc2c(c1)OC(F)(F)O2` (racemic) [Compound 254, (rac)-4-[[1-[3-[(2,2-difluoro-1,3-benzodioxol-5-yl)-methyl-carbamoyl]phenyl]-3-(difluoromethyl)-4,5,6,7-tetrahydroindazol-7-yl]oxy]benzoic acid]: the negative logarithm of the EC50 (pEC50) is > 6.00.

With `CN(C(=O)c1cccc(-n2nc(C(F)(F)F)c3c2C(Oc2ccc(C(=O)O)cc2)CCC3)c1)c1cnc2c(c1)CCC2` (racemic) [Compound 258, (rac)-4-[[1-[3-[6,7-dihydro-5H-Cyclopenta[b]pyridin-3-yl(methyl)carbamoyl]phenyl]-3-(trifluoromethyl)-4,5,6,7-tetrahydroindazol-7-yl]oxy]benzoic acid], the pEC50 is > 6.00.

Turning to `CN(C(=O)c1cccc(-n2nc(C(F)(F)F)c3c2C(Oc2ccc(C(=O)O)cc2)CCC3)c1)c1cnc2c(c1)OCC2` (racemic) [Compound 259, (rac)-4-[[1-[3-[2,3-Dihydrofuro[3,2-b]pyridin-6-yl(methyl)carbamoyl]phenyl]-3-(trifluoromethyl)-4,5,6,7-tetrahydroindazol-7-yl]oxy]benzoic acid], the pEC50 is > 6.00.

As to `CN(C(=O)c1cccc(-n2nc(C(F)(F)F)c3c2C(Oc2ccc(C(=O)O)cc2)CCC3)c1)c1cnc2c(c1)COC2` (racemic) [Compound 260, (rac)-4-[[1-[3-[5,7-Dihydrofuro[3,4-b]pyridin-3-yl(methyl)carbamoyl]phenyl]-3-(trifluoromethyl)-4,5,6,7-tetrahydroindazol-7-yl]oxy]benzoic acid], the pEC50 was 5.70 to 6.00.

Turning to `CN(C(=O)c1cccc(-n2nc(C(F)(F)F)c3c2C(Oc2ccc(C(=O)O)cc2)CCC3)c1)c1ccc2c(c1)OCC2` (racemic) [Compound 261, (rac)-4-[[1-[3-[2,3-Dihydrobenzofuran-6-yl(methyl)carbamoyl]phenyl]-3-(trifluoromethyl)-4,5,6,7-tetrahydroindazol-7-yl]oxy]benzoic acid], the pEC50 was > 6.00.

Take `CN(C(=O)c1cccc(-n2nc(C(F)(F)F)c3c2C(Oc2ccc(C(=O)O)cc2)COC3)c1)c1cnc2c(c1)OCC2` (racemic) [Compound 262, 4-[[1-[3-[2,3-Dihydrofuro[3,2-b]pyridin-6-yl(methyl)carbamoyl]phenyl]-3-(trifluoromethyl)-6,7-dihydro-4H-pyrano[4,3-c]pyrazol-7-yl]oxy]benzoic acid]: the pEC50 was 5.70 to 6.00.

Take `CN(C(=O)c1cccc(-n2nc(C(F)F)c3c2C(Oc2ccc(C(=O)O)cc2)COC3)c1)c1ccc2c(c1)OC(F)(F)O2` (racemic) [Compound 263, 4-[[1-[3-[(2,2-difluoro-1,3-benzodioxol-5-yl)-methyl-carbamoyl]phenyl]-3-(difluoromethyl)-6,7-dihydro-4H-pyrano[4,3-c]pyrazol-7-yl]oxy]benzoic acid]: the pEC50 was > 6.00.

Take `CN(C(=O)c1cccc(-n2nc(C(F)(F)F)c3c2C(Oc2ccc(C(=O)O)cc2)COC3)c1)c1ccc2c(c1)OCC2` (racemic) [Compound 265, 4-[[1-[3-[2,3-Dihydrobenzofuran-6-yl(methyl)carbamoyl]phenyl]-3-(trifluoromethyl)-6,7-dihydro-4H-pyrano[4,3-c]pyrazol-7-yl]oxy]benzoic acid]: the pEC50 is > 6.00.

For `CN(C(=O)c1cccc(-n2nc(C(F)(F)F)c3c2C(Oc2ccc(C(=O)O)cc2)CCC3)c1)c1cccc(OC(F)F)c1` (racemic) [Compound 266, 4-[[1-[3-[[3-(Difluoromethoxy)phenyl]-methyl-carbamoyl]phenyl]-3-(trifluoromethyl)-4,5,6,7-tetrahydroindazol-7-yl]oxy]benzoic acid], the pEC50 was 5.70 to 6.00.

In the case of `CN(C(=O)c1cccc(-n2nc(C(F)(F)F)c3c2C(Oc2ccc(C(=O)O)cc2)CCC3)c1)c1cncc(OC(F)F)c1` (racemic) [Compound 267, 4-[[1-[3-[[5-(Difluoromethoxy)-3-pyridyl]-methyl-carbamoyl]phenyl]-3-(trifluoromethyl)-4,5,6,7-tetrahydroindazol-7-yl]oxy]benzoic acid], the pEC50 is 5.70 to 6.00.

For the compound `CN(C(=O)c1cccc(-n2nc(C(F)(F)F)c3c2C(Oc2ccc(C(=O)O)cc2)CCC3)c1)c1ccnc(OC(F)F)c1` (racemic) [Compound 268], the pEC50 was > 6.00.
